Experimental data published in PubChem BioAssay AID1963834 (Molecular Pharmacology Branch, DTP, NCI, 2024).

Tested on: 873145-292-R-J1-PDC complex spheroid viability
Experiment: Anticancer human tumor 873145-292-R-J1-PDC patient-derived renal clear cell carcinoma cell line growth inhibition [POLQ]
Conditions: for IC50: curve of first compound; for viability, T/C: stronger effect = lower value
Procedure, shortened: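 PDC + HUVEC + MSC complex spheroids; POLQ inhibitors ± partner drugs; top conc. at/near clinical Cmax, else 10 microM (SN-38 1 microM), half-log dilutions; 37 degrees C, 5% CO2.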
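Also: spheroids exposed to compounds for 7 days before viability readout.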
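For viability, T/C in this document: luminescence signal used as surrogate for viable cell content; 100% = DMSO vehicle control viability.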

## CC1COCCN1c1cc(C2(O)CC3CCC(C2)O3)c2cnn(-c3ccn[nH]3)c2n1 (configuration not stated) + Nc1ccc(C#CCN(C(=O)Cc2ncc(C(F)(F)F)cc2C(F)(F)F)c2ccc(F)cc2)nn1
Second compound 0.0316 µM
  IC50: 2400 nM
Second compound 0.1 µM
  IC50: 1090 nM
Second compound 0.316 µM
  IC50: > 10000 nM
Second compound 1 µM
  IC50: 1680 nM
Second compound 3.16 µM
  IC50: > 10000 nM
Second compound 10 µM
  IC50: > 10000 nM
Second compound 0.0316 µM, first compound 0.0316 µM
  viability, T/C: 101%
Second compound 0.0316 µM, first compound 0.1 µM
  viability, T/C: 84%
Second compound 0.0316 µM, first compound 0.316 µM
  viability, T/C: 61.3%
Second compound 0.0316 µM, first compound 1 µM
  viability, T/C: 52.8%
Second compound 0.0316 µM, first compound 3.16 µM
  viability, T/C: 50.3%
Second compound 0.0316 µM, first compound 10 µM
  viability, T/C: 47.6%
Second compound 0.1 µM, first compound 0.0316 µM
  viability, T/C: 111%
Second compound 0.1 µM, first compound 0.1 µM
  viability, T/C: 81.9%
Second compound 0.1 µM, first compound 0.316 µM
  viability, T/C: 61.5%
Second compound 0.1 µM, first compound 1 µM
  viability, T/C: 48.1%
Second compound 0.1 µM, first compound 3.16 µM
  viability, T/C: 49.8%
Second compound 0.1 µM, first compound 10 µM
  viability, T/C: 40.9%
Second compound 0.316 µM, first compound 0.0316 µM
  viability, T/C: 94.3%
Second compound 0.316 µM, first compound 0.1 µM
  viability, T/C: 79.4%
Second compound 0.316 µM, first compound 0.316 µM
  viability, T/C: 54.9%
Second compound 0.316 µM, first compound 1 µM
  viability, T/C: 50.4%
Second compound 0.316 µM, first compound 3.16 µM
  viability, T/C: 59.4%
Second compound 0.316 µM, first compound 10 µM
  viability, T/C: 45.6%
Second compound 1 µM, first compound 0.0316 µM
  viability, T/C: 89.2%
Second compound 1 µM, first compound 0.1 µM
  viability, T/C: 72.2%
Second compound 1 µM, first compound 0.316 µM
  viability, T/C: 59.9%
Second compound 1 µM, first compound 1 µM
  viability, T/C: 50.2%
Second compound 1 µM, first compound 3.16 µM
  viability, T/C: 51.2%
Second compound 1 µM, first compound 10 µM
  viability, T/C: 42.4%
Second compound 3.16 µM, first compound 0.0316 µM
  viability, T/C: 89.2%
Second compound 3.16 µM, first compound 0.1 µM
  viability, T/C: 81%
Second compound 3.16 µM, first compound 0.316 µM
  viability, T/C: 67.5%
Second compound 3.16 µM, first compound 1 µM
  viability, T/C: 53.2%
Second compound 3.16 µM, first compound 3.16 µM
  viability, T/C: 56.8%
Second compound 3.16 µM, first compound 10 µM
  viability, T/C: 46.9%
Second compound 10 µM, first compound 0.0316 µM
  viability, T/C: 99.3%
Second compound 10 µM, first compound 0.1 µM
  viability, T/C: 94.5%
Second compound 10 µM, first compound 0.316 µM
  viability, T/C: 66%
Second compound 10 µM, first compound 1 µM
  viability, T/C: 57.1%
Second compound 10 µM, first compound 3.16 µM
  viability, T/C: 55.3%
Second compound 10 µM, first compound 10 µM
  viability, T/C: 48.2%
